Experimental data: PMC10355216, “The C-terminal tail of CSNAP attenuates the CSN complex” (Life Science Alliance, 2023)

Experiments:
[1] = test system: recombinant CSN complex; experiment: Peptide array screen of C-CSNAP peptides with recombinant CSN (rCSN^WT); type: binding; conditions: for Average fold change, intensities as fold of C-CSNAP (A1): rCSN^WT on INTAVIS Celluspots array, anti-CSN3 and HRP secondary antibody, average of six replicates (three independent experiments in duplicates); for Average fold change: peptide array with rCSN, average of 3 experiments, left and right (n = 6), fold of C-CSNAP (A1);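 for all read-outs here: densitometric signal of CSN bound to each synthesized peptide spot, with an antibody-only array lacking CSN run to exclude non-specific binding, higher values meaning stronger binding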
Experimental: To generate an optimized C-CSNAP peptide, we used the peptide array methodology. The array was designed to screen for the optimal peptide length, sequence, and stability (Fig 3A). A recombinant CSN complex was expressed, purified, and screened for binding to the peptide array by using an anti-CSN3 antibody. To rule out non-specific binding of the probing antibody, a control experiment was carried out without the addition of the CSN complex (Fig 3A right panel).
C-CSNAP peptide and its derivatives were synthesized on a microarray. The array was blocked and incubated with or without the COP9 signalosome complex (CSN) and probed using an anti-CSN3 antibody and HRP-conjugated secondary antibody. To assess non-specific binding of the antibodies to the array, anti-CSN3 and anti-GAR–HRP were used without the addition of the CSN. Signal intensity of each spot was measured and normalized to the intensity of the spot of C-CSNAP (A1). Measured values for each spot were averaged from six arrays and plotted with SEM. […] (A) A representative image of the peptide array (left) and the background (right). (B) Elongation of the C-terminal 16 amino acids (green) with one residue at a time based on the full-length sequence. […] (F) Single D-amino acid substitution at various positions.
(§1) Intensity values are normalized to the intensity of the 16AA C-CSNAP peptide (A1) on each array from three independent experiments in duplicates, and averages from the six replicates are calculated with SEM.
(§2) Optimization of C-CSNAP sequence for enhanced binding to recombinant CSN^ΔCSNAP was screened by printing the modified sequences of CSNAP or C-CSNAP (Phe to Trp, Asp to Glu, Ala screen, D-amino acid screen, N-α-methylation, and Aib incorporation on INTAVIS Celluspots array [2 × 384spots]). The array was blocked with 5% skim milk in TBS-0.5% Tween 20 (TBS-T) for 4 h at room temperature, washed three times in TBS-T, and then incubated with 0.5 μM CSN^ΔCSNAP in 5% milk–TBS-T. Bound CSN^ΔCSNAP was visualized by incubating with anti-CSN3 (ab79698) antibody (1:10,000, overnight) and goat-anti-rabbit-HRP secondary antibody (1:10,000, 1 h).

[2] = test system: CSN^ΔCSNAP complex; experiment: Peptide array screen of C-CSNAP peptides with rCSN^ΔCSNAP; type: binding; conditions: average of 5 experiments;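 note: Array-printed peptides incubated with 0.5 µM CSN^ΔCSNAP, bound complex detected by anti-CSN3 antibody plus HRP-linked secondary, spot intensity expressed relative to the parent reference peptide spot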
Experimental: Peptide array screen of modified C-CSNAP peptides. C-CSNAP peptide and its derivatives were printed on a microarray. The array was blocked and incubated with or without the CSN∆CSNAP complex and probed using an anti-CSN3 antibody and HRP-conjugated secondary antibody. To assess non-specific binding of the antibodies to the array, anti-CSN3 and anti-GAR-HRP were used without the addition of the COP9 signalosome complex (CSN). Signal intensity of each spot was measured and normalized to the intensity of the spot of C-CSNAP (A1). Measured values for each spot were averaged from six arrays and plotted with standard errors SEM.
as §1, §2

[3] = peptide array, rCSN^ΔCSNAP, left and right spots
[4] = peptide array with rCSN^ΔCSNAP, left and right (n = 10), fold of C-CSNAP (A1)

Row | Sequence | Average fold change, intensities as fold of C-CSNAP (A1) [1] | Average fold change [2, 3] | Average fold change [1] | Average fold change [2, 4]
1 | DFFNEFEELFDDDDIQ [Position D16, C-CSNAP, Asp to Glu substitution D46,49E] | 0.7250 fold of C-CSNAP (A1) | 1.2614 fold of C-CSNAP (A1) | – | –
2 | DFFNEFEELFDDDEIQ [Position E16, C-CSNAP, Asp to Glu substitution D46,49,55E] | 0.6983 fold of C-CSNAP (A1) | 0.9545 fold of C-CSNAP (A1) | – | –
3 | DFFNEFEELFDDEDIQ [Position E15, C-CSNAP, Asp to Glu substitution D46,49,54E] | 0.5680 fold of C-CSNAP (A1) | 0.8747 fold of C-CSNAP (A1) | – | –
4 | DFFNEFEELFDEDDIQ [Position E14, C-CSNAP, Asp to Glu substitution D46,49,53E] | 0.6197 fold of C-CSNAP (A1) | 0.9920 fold of C-CSNAP (A1) | – | –
5 | DFFNEFEELFDEEEIQ [D46,49,53,54,55E] | – | 1.4630 fold of C-CSNAP (A1) | 0.6202 fold | –
6 | DFFNEFEELFEDDDIQ [Position E13, C-CSNAP, Asp to Glu substitution D46,49,52E] | 0.6592 fold of C-CSNAP (A1) | 1.2426 fold of C-CSNAP (A1) | – | –
7 | DFFNEFEELFEDDEIQ [D46,49,52,55E] | – | 1.1176 fold of C-CSNAP (A1) | 0.6253 fold | –
8 | DFFNEFEELFEDEDIQ [D46,49,52,54E] | – | 0.9254 fold of C-CSNAP (A1) | 0.5934 fold | –
9 | DFFNEFEELFEDEEIQ [D46,49,52,54,55E] | – | 1.2301 fold of C-CSNAP (A1) | 0.5968 fold | –
10 | DFFNEFEELFEEDDIQ [D46,49,52,53E] | – | 0.8013 fold of C-CSNAP (A1) | 0.5885 fold | –
11 | DFFNEFEELFEEDEIQ [D46,49,52,53,55E] | – | 1.1600 fold of C-CSNAP (A1) | 0.5677 fold | –
12 | DFFNEFEELFEEEDIQ [D46,49,52,53,54E] | – | 1.3745 fold of C-CSNAP (A1) | 0.5724 fold | –
13 | DFFNEFEELFEEEEIQ [D46,49,52,53,54,55E] | – | 1.0133 fold of C-CSNAP (A1) | 0.5470 fold | –
14 | DFWNDFEDLFDDDDIQ [Position C13, C-CSNAP, Phe to Trp substitution F44W] | 0.8173 fold of C-CSNAP (A1) | 1.2883 fold of C-CSNAP (A1) | – | –
15 | DFWNDWEDLWDDDDIQ [Position C22, C-CSNAP, Phe to Trp substitution F44,47,51W] | 0.6112 fold of C-CSNAP (A1) | 1.2126 fold of C-CSNAP (A1) | – | –
16 | DLAANEKAVHADFFNDFEDLFDDDDIQ [Position A12, CSNAP residues 31-57] | 0.9978 fold of C-CSNAP (A1) | – | – | 1.0405 fold
17 | DLDEAGGSTGLLMDLAANEKAVHADFFNDFEDLFDDDDIQ [B 1, CSNAP residues 18-57] | 1.1704 fold of C-CSNAP (A1) | – | – | 0.9126 fold
18 | DWFNDFEDLFDDDDIQ [Position C12, C-CSNAP, Phe to Trp substitution F43W] | 0.7756 fold of C-CSNAP (A1) | 1.2910 fold of C-CSNAP (A1) | – | –
19 | DWFNDFEDLWDDDDIQ [Position C18, C-CSNAP, Phe to Trp substitution F43,51W] | 0.5534 fold of C-CSNAP (A1) | 1.2485 fold of C-CSNAP (A1) | – | –
20 | DWFNDWEDLFDDDDIQ [Position C17, C-CSNAP, Phe to Trp substitution F43,47W] | 0.7959 fold of C-CSNAP (A1) | 1.5247 fold of C-CSNAP (A1) | – | –
21 | DWFNDWEDLWDDDDIQ [Position C23, C-CSNAP, Phe to Trp substitution F43,47,51W] | 0.4941 fold of C-CSNAP (A1) | 0.6854 fold of C-CSNAP (A1) | – | –
22 | DWWNDFEDLFDDDDIQ [Position C16, C-CSNAP, Phe to Trp substitution F43,44W] | 0.7427 fold of C-CSNAP (A1) | 1.3233 fold of C-CSNAP (A1) | – | –
23 | DWWNDWEDLWDDDDIQ [D 2, C-CSNAP, Phe to Trp substitution F43,44,47,51W] | 0.6800 fold of C-CSNAP (A1) | 0.9168 fold of C-CSNAP (A1) | – | –
24 | EAGGSTGLLMDLAANEKAVHADFFNDFEDLFDDDDIQ [Position A22, CSNAP residues 21-57] | 1.1428 fold of C-CSNAP (A1) | – | – | 1.3163 fold
25 | EFFNDFEDLFDDDEIQ [Position D15, C-CSNAP, Asp to Glu substitution D42,55E] | 0.7777 fold of C-CSNAP (A1) | 1.0098 fold of C-CSNAP (A1) | – | –

Row | Sequence | Average fold change, intensities as fold of C-CSNAP (A1) [1] | Average fold change [2, 3] | Average fold change [1] | Average fold change [2, 4]
26 | EFFNDFEDLFDDEDIQ [Position D14, C-CSNAP, Asp to Glu substitution D42,54E] | 0.7060 fold of C-CSNAP (A1) | 1.0310 fold of C-CSNAP (A1) | – | –
27 | EFFNDFEDLFDEDDIQ [Position D13, C-CSNAP, Asp to Glu substitution D42,53E] | 0.7560 fold of C-CSNAP (A1) | 1.1346 fold of C-CSNAP (A1) | – | –
28 | EFFNDFEDLFEEDEIQ [D42,52,53,55E] | – | 1.0660 fold of C-CSNAP (A1) | 0.6502 fold | –
29 | EFFNDFEDLFEEEDIQ [D42,52,53,54E] | – | 1.1111 fold of C-CSNAP (A1) | 0.7432 fold | –
30 | EFFNDFEELFDDDDIQ [Position D11, C-CSNAP, Asp to Glu substitution D42,49E] | 0.8480 fold of C-CSNAP (A1) | 1.0773 fold of C-CSNAP (A1) | – | –
31 | EFFNDFEELFDDDEIQ [Position E12, C-CSNAP, Asp to Glu substitution D42,49,55E] | 0.6694 fold of C-CSNAP (A1) | 0.9711 fold of C-CSNAP (A1) | – | –
32 | EFFNDFEELFDDEDIQ [Position E11, C-CSNAP, Asp to Glu substitution D42,49,54E] | 0.6850 fold of C-CSNAP (A1) | 0.8932 fold of C-CSNAP (A1) | – | –
33 | EFFNDFEELFDEDDIQ [Position E10, C-CSNAP, Asp to Glu substitution D42,49,53E] | 0.6945 fold of C-CSNAP (A1) | 1.1579 fold of C-CSNAP (A1) | – | –
34 | EFFNDFEELFEDDDIQ [E 9, C-CSNAP, Asp to Glu substitution D42,49,52E] | 0.6782 fold of C-CSNAP (A1) | 1.0112 fold of C-CSNAP (A1) | – | –
35 | EFFNDFEELFEDDEIQ [D42,49,52,55E] | – | 0.9030 fold of C-CSNAP (A1) | 0.7529 fold | –
36 | EFFNDFEELFEDEDIQ [D42,49,52,54E] | – | 1.0950 fold of C-CSNAP (A1) | 0.7100 fold | –
37 | EFFNDFEELFEEDDIQ [D42,49,52,53E] | – | 0.8283 fold of C-CSNAP (A1) | 0.7257 fold | –
38 | EFFNDFEELFEEEEIQ [D42,49,52,53,54,55E] | – | 0.9207 fold of C-CSNAP (A1) | 0.6132 fold | –
39 | EFFNEFEDLFDDDDIQ [Position D10, C-CSNAP, Asp to Glu substitution D42,46E] | 0.8862 fold of C-CSNAP (A1) | 1.0622 fold of C-CSNAP (A1) | – | –
40 | EFFNEFEDLFDDDEIQ [E 8, C-CSNAP, Asp to Glu substitution D42,46,55E] | 0.7616 fold of C-CSNAP (A1) | 0.9227 fold of C-CSNAP (A1) | – | –
41 | EFFNEFEDLFDDEDIQ [E 7, C-CSNAP, Asp to Glu substitution D42,46,54E] | 0.6639 fold of C-CSNAP (A1) | 1.1480 fold of C-CSNAP (A1) | – | –
42 | EFFNEFEDLFDEDDIQ [E 6, C-CSNAP, Asp to Glu substitution D42,46,53E] | 0.7001 fold of C-CSNAP (A1) | 0.9657 fold of C-CSNAP (A1) | – | –
43 | EFFNEFEDLFEDDDIQ [E 5, C-CSNAP, Asp to Glu substitution D42,46,52E] | 0.8794 fold of C-CSNAP (A1) | 1.0465 fold of C-CSNAP (A1) | – | –
44 | EFFNEFEDLFEDDDIQ [Position D12, C-CSNAP, Asp to Glu substitution D42,52E] | 0.7025 fold of C-CSNAP (A1) | 1.0147 fold of C-CSNAP (A1) | – | –
45 | EFFNEFEELFDDDDIQ [E 4, C-CSNAP, Asp to Glu substitution D42,46,49E] | 0.8374 fold of C-CSNAP (A1) | 0.8106 fold of C-CSNAP (A1) | – | –
46 | EFFNEFEELFDDDEIQ [D42,46,49,55E] | – | 0.8257 fold of C-CSNAP (A1) | 0.5938 fold | –
47 | EFFNEFEELFDDEDIQ [D42,46,49,54E] | – | 1.0465 fold of C-CSNAP (A1) | 0.5426 fold | –
48 | EFFNEFEELFDEDDIQ [D42,46,49,53E] | – | 1.2266 fold of C-CSNAP (A1) | 0.3807 fold | –
49 | EFFNEFEELFDEEEIQ [D42,46,49,53,54,55E] | – | 1.0322 fold of C-CSNAP (A1) | 0.3621 fold | –
50 | EFFNEFEELFEDDDIQ [D42,46,49,52E] | – | 1.0318 fold of C-CSNAP (A1) | 0.5168 fold | –
